The record followed here is patent US20230036041A1, “SORTILIN BINDING CONJUGATE COMPOUNDS, COMPOSITIONS AND USES THEREOF FOR TREATING CANCER” (THERATECHNOLOGIES INC., priority 2019, published 2023).

“Also recorded” adds a separate entry of the source. Where two headings read alike, the source gives them in different places. Non-standard residues stand in square brackets, D forms with d. Residues, ends and D or L forms follow the SMILES beside them. *: point of attachment. X1 = CC(=O)O[C@@]12CO[C@@H]1C[C@H](O)[C@@]1(C)C(=O)[C@H](O)C3=C(C)[C@@H](OC(=O)[C@H](OC(=O)CCC(=O)*)[C@@H](NC(=O)OC(C)(C)C)c4ccccc4)C[C@@](O)([C@@H](OC(=O)c4ccccc4)[C@H]21)C3(C)C; Nle = CCCC[C@H](N)C(=O)O

A short description of series [1]: mouse plasma levels after IV bolus injection. Type of series: in vivo, mice. As for the experimental part:
In addition, TH1902 and docetaxel mouse plasma levels were assessed in TH1902-treated mice.

Series [2] in a line: in vitro stability in mouse plasma. It counts as in vitro ADME. The following applies: 37° C. As for the experimental part:
Additional testing was conducted to study the stability of formulated TH1902 in mouse plasma. TH1902 was either solubilized in […] or formulated with solubilizing agents (Formulation: DMSO/Solutol™ HS15/Tween™-80/EtOH/Sol. Ac. Ac./D5W/water in the following V/V proportion 5/6/2.5/0.75/0.005/69/16.75). TH1902 was incubated in mouse plasma at 37° C. for the indicated times. Plasma proteins were precipitated by the addition of 4 volumes of ACN (87%) with formic acid (0.125%) followed by centrifugation (10,000 rpm×5 min). Supernatants were injected in UPLC/MS. Peak area corresponding to TH1902 was calculated and compared to time 0.

For series [3], the system named is HT29 colorectal xenograft tumors. Briefly: colorectal cancer xenograft model (HT-29). To be noted: low and high doses, −20% endpoint limit. Type of series: in vivo, mice. As to the method:
(§1) Briefly, stock solution of formulated TH1902 was prepared as sterile aliquots of 10 mg/mL frozen liquid solutions (see below). On the day of animal dosing, frozen aliquots were thawed 30 minutes at room temperature then diluted with sterile 5% dextrose injection, USP (D5W) to the desired concentration for injection (i.e. typically 5.4 or 1.35 mg/mL).
(§2) TH1902 frozen stock solution were prepared as follow: • 1. Make the TH1902 diluent solution (Diluent) the day before the solubilization. Diluent: 10% Tween™ 80 in D5W USP (w/v) with 0.04% of formic acid (v/v), ˜pH 2.9. Leave solution at room temperature until TH1902 solubilization (next day). • 2. Weigh 60 mg of TH1902 API into a 14 ml glass vial with screw caps. Adjust TH1902 weights to reflect TH1902 purity according to the certificate of analysis. • 3. Add 90% of diluent solution needed to prepare the TH1902 10 mg/ml stock solution. • 4. Swirl the content of the bottle to form opaque mixture and place a stir bar. • 5. Place bottle in the heating apparatus (glass water bath and mount for holding vial with thermometer and stir bar on a digital heating plate). Begin mixing the content of the bottle. • 6. […] Transfer the formulation to a graduated glass cylinder and bring to final calculated volume with diluent solution. • 9. […] Perform UPLC analysis against a TH1902 standard curve for quantification and purity assessment. • 11. […]

Another series has as its system SK-MEL-28 xenografts. Type of series: in vivo, mice. As to the method: as §1
as §2, with “6. Gradually increase the temperature of water bath in increments of 5° C. every 30 minutes until mixture turns clear (temperature ramping up to 45° C. over a period of time of about 165 to 180 minutes).” for “6.”
Two of the sortilin-expressing melanoma cancer cell lines (SK-MEL-28 and B16-F10) were used to monitor whether TH1902 impeded the growth of the cells when administered at 35 mg/kg/week, versus unconjugated docetaxel at 15 mg/kg/week. This is the maximum tolerated dose (MTD) for free docetaxel, and the TH1902 formulation contains the equivalent quantity of docetaxel within this peptide drug conjugate. […] This difference was quantified when the control group reached the tumor volume endpoint at day-42. […]

The subject of series [4] is MDA-MB-231/Luc (triple-negative breast cancer) xenografts. Briefly: tumor growth inhibition, MDA-MB-231/Luc xenografts in nude mice, TH1902 formulations (Examples 3A, 3B). Type of series: in vivo.
Protocol: TH1902 and docetaxel (supplied by Wonda Science Inc.) were used. […] Both treatments were administered intravenously, on a per week basis over 6 weeks.
8 different formulations comprising TH1902 were tested.
These are derived from a triple-negative breast cancer (TNBC) and they stably express firefly luciferase. […] Cell counts and cell viability were assessed with a BioRad TC20™ automated cell counter.
60 young adult, female, homozygous nude mice (Crl:CD1-Foxn1^nu), obtained from Charles River Canada Inc. (St-Constant, Quebec) were used in this study. Healthy mice were selected based on normal veterinary examination.
Tumor growth was monitored, and mice were randomly assigned to groups the vehicle group, docetaxel group or one of the 8 TH1902 formulations group (6 mice per group) for further treatment when tumor volumes reached 40-140 mm^3 or after 2-3 days of significant increase. Experimental procedures
Mice were first anesthetized with isoflurane and oxygen. Two-dimensional measurements were taken with electronic calipers during the study and tumor volume was calculated using the following formula: tumor volume (mm^3)=0.52*a*b^2, where 0.52 is a constant to calculate the volume of an ellipsoid (π/6), where “a” is the longest diameter and “b” is the shortest diameter[3]. […]
All mice were observed daily for changes in appearance and behavior, and events recorded when appropriate. […]
The subject of series [5] is PANC-1 subcutaneous tumor xenografts. Briefly: pancreatic cancer xenograft model (PANC-1). Type of series: in vivo, mice. To be noted: vs vehicle. As for the experimental part:
as §1, §2

The half-life is how long it takes for the measured level to halve. Higher therefore signals slow loss. In the case of `CCCC[C@H](NC(=O)[C@H](CC(N)=O)NC(=O)[C@H](CCCNC(=N)N)NC(=O)[C@@H](NC(=O)CNC(=O)[C@H](C)NC(=O)[C@H](CCCCNC(=O)CCC(=O)O[C@@H](C(=O)O[C@H]1C[C@@]2(O)[C@@H](OC(=O)c3ccccc3)[C@@H]3[C@]4(OC(C)=O)CO[C@@H]4C[C@H](O)[C@@]3(C)C(=O)[C@H](O)C(=C1C)C2(C)C)[C@@H](NC(=O)OC(C)(C)C)c1ccccc1)NC(=O)[C@H](C)NC(=O)[C@H](CCCNC(=N)N)NC(=O)[C@@H](NC(=O)CNC(C)=O)C(C)C)C(C)C)C(=O)N[C@@H](Cc1ccccc1)C(=O)N[C@@H](CCCCNC(=O)CCC(=O)O[C@@H](C(=O)O[C@H]1C[C@@]2(O)[C@@H](OC(=O)c3ccccc3)[C@@H]3[C@]4(OC(C)=O)CO[C@@H]4C[C@H](O)[C@@]3(C)C(=O)[C@H](O)C(=C1C)C2(C)C)[C@@H](NC(=O)OC(C)(C)C)c1ccccc1)C(=O)N[C@@H](CO)C(=O)N[C@@H](CCC(=O)O)C(=O)N[C@@H](CO)C(=O)N[C@@H](Cc1ccc(O)cc1)C(=O)O` [TH1902, Acetyl-GVRAK(docetaxel)AGVRN(Nle)FK(docetaxel)SESY] (Ac-GVRAK(X1)AGVRN[Nle]FK(X1)SESY-OH), the “concentration of docetaxel released from TH1902 in plasma” value in series [1] (mouse plasma, IV bolus injection 50 mg/kg TH1902) is reported as “very low concentration”. Also, in series [1] (mouse plasma, IV bolus injection 50 mg/kg TH1902, FIG. 12), the “plasma concentration of TH1902” value is reported as “high plasma concentration”. In addition, the half-life in series [2] (TH1902 formulated with solubilizing agents (DMSO/Solutol HS15/Tween-80/EtOH/Sol. Ac. Ac./D5W/water 5/6/2.5/0.75/0.005/69/16.75)) is 30 h; in series [2] (TH1902 solubilized in DMSO), 5 h. For the same molecule, the body weights result in series [3] is reported as “within the acceptable range”. Moreover, in the series on SK-MEL-28 xenografts (TH1902 35 mg/kg/week, docetaxel 15 mg/kg/week), the “body weight of mice” value was “remained within −20% endpoint limit”.

In the case of `CC(=O)O[C@@]12CO[C@@H]1C[C@H](O)[C@@]1(C)C(=O)[C@H](O)C3=C(C)[C@@H](OC(=O)[C@H](O)[C@@H](NC(=O)OC(C)(C)C)c4ccccc4)C[C@@](O)([C@@H](OC(=O)c4ccccc4)[C@H]21)C3(C)C` [docetaxel], in series [1] (administered as a free drug), the “docetaxel concentration that can be measured in plasma” value is reported as 15-20%. Further, the “tumor volumes / tumor growth up to Day 24” value in series [4] (8.75 mg/kg/week TH1902, docetaxel at ¼ MTD, vs vehicle, FIG. 16) is “grow slightly faster than those in the control animals”. The “ΔT/ΔC (%) (at endpoint, Day-24)” value in series [4] (8.75 mg/kg/week of TH1902 (docetaxel 3.75 mg/kg)) is recorded as 143%. In addition, in series [3], the body weights result is reported as “within the acceptable range”. Moreover, the “tumor growth / tumor size, low dose” value in series [5] (docetaxel 3.75 mg/kg, TH1902 8.75 mg/kg, day 21 and extended) was “very similar in size to those treated with vehicle; also recorded: indistinguishable”. For the same molecule, in series [5] (docetaxel 15 mg/kg (MTD), TH1902 35 mg/kg, day 21), the “tumor growth / tumor size, high dose” value is “Decreased tumor growth; also recorded: significant decreases in tumor size”. In addition, in the series on SK-MEL-28 xenografts (TH1902 35 mg/kg/week, docetaxel 15 mg/kg/week, endpoint day-42, FIG. 27), the “tumor growth / tumor volumes” value was “inhibited tumor growth”. For the same molecule, the “body weight of mice” value with SK-MEL-28 xenografts (mouse, in vivo) is “remained within −20% endpoint limit”.
